Laboratory results taken from US11191811B2, “Osteocalcin as a treatment for frailty associated with aging” (THE TRUSTEES OF COLUMBIA UNIVERSITY IN THE CITY OF NEW YORK, priority 2014, dated 2021).
Entries after “also recorded” stand apart in the source; their conditions may differ.

Assays:
WT myotubes = experiment: 14C-oleate (fatty acid) oxidation in myotubes; assay type: cell-based, mouse
Method: (§1) Glucose and insulin tolerance tests were performed as previously described (Lee et al., 2007, Cell 130:456-469). For in vivo glucose uptake, a bolus of 2-deoxy-d-[^3H]glucose (^3H-2-DG, Perkin Elmer) (10 μCi) was administered before an endurance run. ^3H-2-DG and ^3H-2-DG-6-P content in muscle was determined by liquid scintillation counter and normalized to muscle weight. Glucose uptake and fatty acid oxidation assays in myotubes were performed as previously described (Sebastian et al., 2007, Am. J. Physiol. Endocrinol. Metab. 292:E667-686). GLUT4 translocation was determined by flow cytometry using an antibody against the extracellular domain of the GLUT4 protein (Santa Cruz, Sc-1606). Measurements of oxygen consumption rates (OCR) in isolated myofibers were performed using a XF24 Seahorse Analyzer® (Seahorse Biosciences). To analyze mitochondrial function, myofibers were treated with three compounds in succession (oligomycin 10 μg/ml, FCCP 200 μM, rotenone 0.2 μM) and OCR was recorded following administration of each of them.
(§2) Culture of skeletal muscle myoblasts from 7 day-old mice was performed as described (Gharaibeh et al., 2008, Nature Protocols 3:1501-1509). Myoblasts were differentiated into myotubes for 3-4 days in a medium containing 5% horse serum. Muscle fibers were isolated from flexor digitorum brevis muscle. Muscles were dissected with DMEM 2% collagenase for 2 hours at 37° C., in a 5% CO2 incubator. Muscle fibers were disaggregated from the tissue using a wide bore pipet and plated in matrigel-coated plates at approximately 50% confluence. After overnight incubation, isolated myofibers were used.

Gprc6a−/− myotubes = experiment: 14C-oleate (fatty acid) oxidation in myotubes; assay type: cell-based, mouse
Method: as §1, §2

WT mice = experiment: Endurance exercise on treadmill until exhaustion; assay type: in vivo, mouse; details: for muscle function / exercise capacity of young and old WT mice: 3 to 15 month-old WT mice
Method: First, whether a single intraperitoneal injection of uncarboxylated mouse osteocalcin (osteocalcin) (100 ng/g of body weight) immediately before exercise would improve the exercise capacity of 3 month-old WT mice was tested.
To determine if osteocalcin has the same ability in older mice, 12 and 15 month-old mice that have low circulating osteocalcin levels were injected prior to running with 500 ng/g of body weight of osteocalcin in order to raise their circulating levels substantially. […] This was due to an increase in the phosphorylation of Akt, AMPK and HSL, as well as in glucose uptake, that occurred to a greater extent in oxidative muscles that express Gprc6a at the highest level, than in glycolytic muscles (FIG. 31C-F). Whether chronic delivery of osteocalcin through mini-pumps (90 ng/hour) for 28 days would increase muscle function in 9 month old mice that have the lowest circulating osteocalcin levels was also tested. […] This improved ability to perform exercise was caused in part by an increase in the expression in muscle of the fatty acid transporter Fatp1 and an activation of the Akt pathway (FIG. 31H-).
For exercise studies, all mice were trained before the tests to run on a treadmill (Harvard apparatus) for three days (10 minutes/day). The day of the test, mice were acclimated to the treadmill for 5 minutes followed by 10 minutes running at a constant speed of 17 cm/s, then a gradual increase in the speed up to 30 cm/s. Next, mice were run until exhaustion as defined by the number of times a mouse fell off to the electric grid during one minute (>15). Measurements of muscle strength were carried out using a grip strength meter (Columbus instruments). Values are expressed as the average of five single measurements, taken one minute apart from each other. For all biochemical and metabolic analyses performed, blood/tissues were collected and processed either at rest or at the end of a 40 min run (30 cm/s).

wild type mice [1] = experiment: Glucose tolerance test after subcutaneous infusion; assay type: in vivo, mouse; details: 0.3 or 3 ng/hour subcutaneously for 14 days, 120 minutes following glucose injection
Method: FIG. 2. Osteocalcin subcutaneous infusion increases glucose tolerance in wild-type mice. Wild-type mice were infused subcutaneously with indicated doses of recombinant osteocalcin or PBS for 14 days before receiving a single injection of glucose. Blood glucose was measured thereafter at indicated times.
For glucose tolerance test (GTT), glucose (2 g/kg body weight (BW)) was injected intraperitoneally (IP) after an overnight fast and blood glucose was monitored using blood glucose strips and the Accu-Check glucometer (Roche) at indicated times.
In another in vivo experiment, the effect of uncarboxylated osteocalcin on glucose tolerance was investigated. Wild type mice were infused subcutaneously with either 0.3 or 3 ng/hour doses of recombinant uncarboxylated osteocalcin or PBS for 14 days before receiving a single injection of glucose. Blood glucose was measured thereafter at the indicated times.

wild type mice [2] = experiment: Body weight and gonadal fat pad mass during subcutaneous infusion; assay type: in vivo, mouse
Method: FIG. 4. Osteocalcin subcutaneous infusion decreases fat mass in wild-type mice. (A) Indicated doses of recombinant osteocalcin or PBS were infused subcutaneously for 28 days in wild-type mice. Body weight was recorded at indicated days. (B) Gonadal fat pad mass was measured after 28 days.
In another in vivo experiment, the effect of uncarboxylated osteocalcin on body weight and fat pad mass was monitored (FIG. 4). Wild type mice were infused subcutaneously for 28 days with PBS or uncarboxylated osteocalcin at 0.3, 1 or 3 ng/hour. […] Gonadal fat pad mass, measured after 28 days, decreased by about %18 with 3 ng/hour uncarboxylated osteocalcin treatment.

**Q.** Which results are given for “uncarboxylated osteocalcin: Recombinant uncarboxylated mouse osteocalcin, bacterially produced, purified on glutathione beads and cleaved from the GST subunit by thrombin (YLGASVPSPDPLEPTREQCELNPACDELSDQYGLKTAYKRIYGITI)”?
**A.** 14C-oleate oxidation (WT myotubes; WT myotubes): increase; fatty acid oxidation (WT myotubes; summary statement, in muscle): favors; 14C-oleate oxidation (Gprc6a−/− myotubes): could not increase; increase of time and distance run on the treadmill before exhaustion (WT mice; 3 month-old WT mice, single intraperitoneal injection 100 ng/g of body weight immediately before exercise): over 20%; muscle function / exercise capacity of young and old WT mice (WT mice; listed as Osteocalcin): increases; muscle function / exercise capacity of young and old WT mice (WT mice; listed as osteocalcin): can improve; time and distance run / exercise capacity of older mice (WT mice; 12 and 15 month-old mice, 500 ng/g of body weight injected prior to running): the exercise capacity of 3 month-old mice; also recorded: the same time and distance as 3 month-old untreated mice; also recorded: run like young mice; time and distance run on the treadmill before exhaustion (WT mice; mini-pumps 90 ng/hour for 28 days, 9 month old mice): significant increase; increase of distance run (WT mice; wild-type mice, simple injection while they run on a treadmill): 20%; exercise capacity of young mice (WT mice; young (3 month-old) WT mice, exogenous osteocalcin): increases; also recorded: sufficient to increase; glucose tolerance (wild type mice [1]): increased; glucose tolerance (wild type mice [1]; listed as Osteocalcin): increases; decrease of gonadal fat pad mass (wild type mice [2]; 3 ng/hour, after 28 days): ~18%; body weight (wild type mice [2]; 0.3, 1 or 3 ng/hour subcutaneously for 28 days, highest dose most effective): slightly reduced; fat mass (wild type mice [2]; subcutaneous infusion 28 days (FIG. 4 title)): decreases; gonadal fat pad mass (wild type mice [2]; the other doses (0.3, 1 ng/hour), 28 days): did not significantly decrease
